# Values of other authors, collected in patent publication EP2654723B1, “Solid pharmaceutical dosage forms comprising tadalafil and methods of preparation thereof” (Zaklady Farmaceutyczne Polpharma SA, priority 2010, dated 2012).
# Legend:
# [1] = at 37°C
compound,measurement,setting,value
"CN1CC(=O)N2[C@H](c3ccc4c(c3)OCO4)c3[nH]c4ccccc4c3C[C@@H]2C1=O [Tadalafil, (6R-trans)-6-(1,3-benzodioxol-5-yl)-2,3,6,7,12,12a-hexahydro-2-methyl-pyrazino [1', 2':1,6] pyrido[3,4-b]indole-1,4-dione]",experimental water solubility,[1],about 2 µg/mL
same,permeability,,low permeability
same,BCS class,because of low solubility and low permeability,BCS class IV
